The values below come from US8592435B2, “Nitrogen-containing six-membered aromatic ring derivatives and pharmaceutical products containing the same” (Daiichi Sankyo Company, Limited, priority 2007, dated 2013).

Structures can show the parent of a compound that is named as a salt.

For the experiment, the system named is hippocampal neurons. Description: Test Example 1: ability to promote axonal outgrowth. The experiment is classed as cell-based, Wistar rats. Conditions: Hippocampal neuron, 216 h, % of control, rat hippocampal neurons, day 9, read-out: Promotion of axonal outgrowth (%); for activity at 3 µM: Compound Conc. = 3 μM; for activity at 0.3 µM: Compound Conc. = 0.3 μM. The method, then:
According to the method of M. P. Mattson [M. P. Mattson, Brain Res. Rev., 13, 179, (1988)], the hippocampal region was isolated from 18-day embryos of female Wistar rats and the neurons were dispersed using the papain dissociation system. Hippocampal neuron were suspended in 5% Nu-serum+B27 supplement+Neurobasal medium at 5×10^4 cells/well/2 mL. 2 mL of the cell suspension were inoculated on a poly-D-lysine-coated 36φ dish and the neuron were incubated at 37° C. in a 5% CO2 incubator.
On day 3 of the incubation period, 1 mL of the culture medium was replaced with 1 mL of 5% Nu-serum+B27 supplement+Neurobasal medium containing 2 mM AraC. Each test compound was added to the culture on day 3 and day 7 of the incubation period. On day 9, cells were fixed in a 4% paraformaldehyde solution. The nerve axons of the fixed cells were stained with the Rabbit anti-growth-associated protein-43 polyclonal antibody and the stained cells were quantified using Kurabo neuron outgrowth-quantication software.
The ability (%) of each test compound to promote axonal outgrowth was calculated from the following equation: The ability to promote axonal outgrowth (%)=[(measurement with a compound of interest)/(measurement of control)]×100
Example Compounds shown in Table 25 were used as test compounds and were each added at concentrations of 3 μM and 0.3 μM.
Since bFGF gives a measurement of about 120 in this test, 120 is used as the threshold to determine whether a given compound has the ability to promote axonal outgrowth

Take `CN(C(=O)CNc1c(Cl)cnnc1Cl)C1CCN(Cc2ccccc2)CC1` [Compound 139, N-(1-benzylpiperidine-4-yl)-2-(3,5-dichloropyridazine-4-ylamino)-N-methylacetamide]: the activity at 3 µM is 143%.

`Cc1nc(N)nc(C)c1OCC(=O)N(C)C1CCN(Cc2ccccc2)CC1` [Compound 113, 2-(2-amino-4,6-dimethylpyrimidine-5-yloxy)-N-(1-benzylpiperidine-4-yl)-N-methylacetamide]: the activity at 3 µM came to 144%.

Take `CC(C)c1nc(OCC(=O)N(C)C2CCN(Cc3ccccc3)CC2)nc(C(C)C)c1N` [Compound 104, 2-(5-amino-4,6-diisopropylpyrimidine-2-yloxy)-N-(1-benzylpiperidine-4-yl)-N-methylacetamide]: the activity at 0.3 µM was found to be 134%.

`CN(C(=O)COc1cncc(Cl)n1)C1CCN(Cc2ccccc2)CC1` [Compound 129, N-(1-benzylpiperidine-4-yl)-2-(6-chloropyrazine-2-yloxy)-N-methylacetamide hydrochloride]: the activity at 3 µM came out at 147%.

On to `COc1cnnc(Cl)c1NCC(=O)N(C)C1CCN(Cc2ccccc2)CC1` [Compound 140, N-(1-benzylpiperidine-4-yl)-2-(3-chloro-5-methoxypyridazine-4-ylamino)-N-methylacetamide], for which the activity at 0.3 µM came to 128%.

Turning to `Cc1cnc(Cl)nc1OC(C)(C)C(=O)N(C)C1CCN(Cc2ccccc2)CC1` [Compound 112, N-(1-benzylpiperidine-4-yl)-2-(2-chloro-5-methylpyrimidine-4-yloxy)-N,2-dimethylpropanamide maleate], the activity at 3 µM is 126%.

Take `Cc1nc(OCC(=O)NC2CCN(CC3CC3)CC2)nc(C)c1N` [Compound 101, 2-(5-amino-4,6-dimethylpyrimidine-2-yloxy)-N-(1-(cyclopropylmethyl)piperidine-4-yl)acetamide]: the activity at 3 µM turned out to be 193%.

Regarding `Cc1nc(NCC(=O)N(C)C2CCN(Cc3ccccc3)CC2)nc(C)c1N` [Compound 63, 2-(5-amino-4,6-dimethylpyrimidine-2-ylamino)-N-(1-benzylpiperidine-4-yl)-N-methylacetamide], the activity at 3 µM is 186%.

In the case of `CN(C(=O)COc1cncc(Cl)c1)C1CCN(Cc2ccccc2)CC1` [Compound 125, N-(1-benzylpiperidine-4-yl)-2-(5-chloropyridine-3-yloxy)-N-methylacetamide hydrochloride], the activity at 0.3 µM was 173%.

On to `O=C(COc1ccc(Cl)nn1)N(C1CC1)C1CCN(Cc2ccccc2)CC1` [Compound 138, N-(1-benzylpiperidine-4-yl)-2-(6-chloropyridazine-3-yloxy)-N-cyclopropylacetamide], for which the activity at 3 µM amounted to 151%.

For the compound `CN(C(=O)COc1cncc(Cl)c1)C1CCN(CC2CC2)CC1` [Compound 126, 2-(5-chloropyridine-3-yloxy)-N-(1-(cyclopropylmethyl)piperidine-4-yl)-N-methylacetamide hydrochloride], the activity at 3 µM is 167%.

Turning to `Cc1nc(OCC(=O)N(C)C2CCNCC2)nc(C)c1N` [Compound 94, 2-(5-amino-4,6-dimethylpyrimidine-2-yloxy)-N-methyl-N-(piperidine-4-yl)acetamide], the activity at 3 µM stood at 122%.
